Results on 3 compounds are retold here after ChEMBL document CHEMBL1142877, “Synthesis and biological evaluation of 4-methylideneisoxazolidin-5-ones--a new class of highly cytotoxic alpha-methylidene-gamma-lactones” (Eur J Med Chem, 2007).

≈ marks a conversion by molar mass, not a printed value. Calls of active or inactive are those of the source. No cut-off for these calls is given here. Some results are limits rather than exact numbers.

The subject of one assay is HL-60. Nature of the assay: Cytotoxicity against HL60 cells after 72 hrs by dye exclusion assay. Format: functional, cell-based. Particulars: Homo sapiens, HL-60, 72 h.
The nature of assay [1]: Cytotoxicity against adriamycin-resistant HL60/ADR cells expressing MRP1 after 72 hrs by dye exclusion assay. Particulars: Homo sapiens. Format: functional, cell-based.
Assay [2] relates to Staphylococcus aureus. As to the kind of experiment: Growth inhibition of Staphylococcus aureus ATCC 29213 at 150 ug/mL. Format: functional, organism-based.
The subject of assay [3] is Staphylococcus aureus. As to the kind of experiment: Growth inhibition of Staphylococcus aureus ATCC 29213 at 300 ug/mL. In kind it is functional, organism-based.
In assay [4] the test system is Staphylococcus epidermidis. As to the kind of experiment: Growth inhibition of Staphylococcus epidermidis ATCC 12228 at 150 ug/mL. In kind it is functional, organism-based.
Assay [5] relates to Staphylococcus epidermidis. As to the kind of experiment: Growth inhibition of Staphylococcus epidermidis ATCC 12228 at 300 ug/mL. In kind it is functional, organism-based.
A further assay has as its system Enterococcus faecalis. Nature of the assay: Antimicrobial activity against Enterococcus faecalis ATCC 29212. Format: functional.
For assay [6], the system named is Escherichia coli. Nature of the assay: Antimicrobial activity against Escherichia coli NCTC 8196 at 300 ug/mL. Format: functional, organism-based.
The subject of another assay is Pseudomonas aeruginosa. Nature of the assay: Antimicrobial activity against Pseudomonas aeruginosa NCTC 6749. In kind it is functional.
The next assay has as its system Candida albicans. Nature of the assay: Antimicrobial activity against Candida albicans ATCC 10231 at 37.5 ug/mL by MTT reduction assay. Format: functional, organism-based.
The subject of assay [7] is Escherichia coli. Nature of the assay: Antimicrobial activity against Escherichia coli NCTC 8196. In kind it is functional.

A word on the IC50: it is the concentration that inhibits the measured activity by half. Low values mean greater potency in that assay, high ones weaker potency in that assay. For orientation: MIC means the least concentration at which growth counts as inhibited. The low end stands for inhibition by little substance, the high end for a need for much substance.

In the assay with HL-60, `COc1cccc2c1C(=O)c1c(O)c3c(c(O)c1C2=O)C[C@@](O)(C(=O)CO)C[C@@H]3O[C@H]1C[C@H](N)[C@H](O)[C@H](C)O1` [DOXORUBICIN] yielded an IC50 of 0.013 µM.
Regarding `C=C1C(=O)ON(C)C1c1ccc(C)cc1` (stereo not given), in [1], the IC50 amounted to 6 µM. Further, the outcome (in the assay with Staphylococcus aureus [2]; in the assay on Staphylococcus aureus [3]; in assay [4]; in assay [5]; with Candida albicans) was Active. Also, the MIC is not below 300 µg/mL against Enterococcus faecalis and 300 µg/mL (≈ 1480 µM) against Pseudomonas aeruginosa. Also, in the assay on Escherichia coli [6], the outcome was inactive.
As to `C=C1C(=O)ON(C)C1C(C)CCC` (stereo not given), the IC50 in the assay on HL-60 was 4.1 µM; in assay [1], 2.5 µM. In addition, the result (with Staphylococcus aureus [2]; with Staphylococcus aureus [3]; in [4]; in [5]; in the assay on Candida albicans) was Active. The MIC is not below 300 µg/mL against Enterococcus faecalis, 75 µg/mL (≈ 409 µM) in the assay with Escherichia coli [7] and 300 µg/mL (≈ 1640 µM) with Pseudomonas aeruginosa.
